Calls of active or inactive are those of the source. The calls are words filed in the database; no cut-off is given here.

Four compounds from ChEMBL document CHEMBL4364298 can be followed below.

Histamine H1 receptor (Homo sapiens), sequence (P35367 whole entry): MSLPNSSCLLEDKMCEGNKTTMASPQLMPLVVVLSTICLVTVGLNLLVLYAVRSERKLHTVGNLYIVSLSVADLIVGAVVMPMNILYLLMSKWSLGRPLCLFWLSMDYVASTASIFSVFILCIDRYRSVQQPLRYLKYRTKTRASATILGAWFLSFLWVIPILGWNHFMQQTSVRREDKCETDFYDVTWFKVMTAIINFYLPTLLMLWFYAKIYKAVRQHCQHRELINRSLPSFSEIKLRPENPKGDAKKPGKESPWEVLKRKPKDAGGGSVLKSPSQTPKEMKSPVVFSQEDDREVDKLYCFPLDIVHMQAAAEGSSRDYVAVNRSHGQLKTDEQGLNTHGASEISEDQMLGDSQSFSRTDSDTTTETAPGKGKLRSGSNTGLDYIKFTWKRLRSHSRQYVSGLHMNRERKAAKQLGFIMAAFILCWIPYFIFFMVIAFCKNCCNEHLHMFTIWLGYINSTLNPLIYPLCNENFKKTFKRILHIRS

This experiment concerns the target Histamine H1 receptor (Homo sapiens) (UniProt P35367). In words: Antagonist activity at H1R in human HeLa cells assessed as inhibition of histamine-induced intracellular calcium mobilization at 10 times Ki incubated for 18 to 20 hrs prior to Fluo-4NW dye addition for 1 hr followed by compound washout and subsequent stimulation with histamine at 5 mins interval and measured up to 2 hrs by fluorescence assay. Type of experiment: functional, cell-based. (In general: Calcium assays in cells follow changes in intracellular calcium, usually with a dye or a luminescent sensor.)
Take `Clc1ccc2c(c1)CCc1cccnc1C2=C1CCN(CC2CCCC2)CC1`: the inhibition – broadly, the drop in the measured response relative to a control, in per cent – worked out at 100%.

Regarding `Clc1ccc2c(c1)CCc1cccnc1C2=C1CCN(CC2CC2)CC1`, the inhibition worked out at 100%.

For the compound `Cc1cncc(CN2CCC(=C3c4ccc(Cl)cc4CCc4cccnc43)CC2)c1`, the inhibition entry is “Active”.

Regarding `Clc1ccc2c(c1)CCc1cccnc1C2=C1CCN(CC2CCC2)CC1`, the inhibition was found to be 100%.
